According to PubChem BioAssay (NCI):
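Each compound was tested at five concentrations against cells in 96-well plates for 48 hours. Here, GI50 denotes the concentration required for 50% inhibition of growth. TGI: total growth inhibition.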

Key:
Test in all cases: NCI-60 cell line screen, 48 h
786-0 renal = tested on: 786-0 renal
A498 renal = tested on: A498 renal
A549 NSCLC = tested on: A549 NSCLC
ACHN renal = tested on: ACHN renal
BT-549 breast = tested on: BT-549 breast
CAKI-1 renal = tested on: CAKI-1 renal
CCRF-CEM leukemia = tested on: CCRF-CEM leukemia
COLO 205 colon = tested on: COLO 205 colon
DU-145 prostate = tested on: DU-145 prostate
HCC-2998 colon = tested on: HCC-2998 colon
HCT-116 colon = tested on: HCT-116 colon
HCT-15 colon = tested on: HCT-15 colon
HL-60(TB) leukemia = tested on: HL-60(TB) leukemia
HOP-62 NSCLC = tested on: HOP-62 NSCLC
HS 578T breast = tested on: HS 578T breast
HT29 colon = tested on: HT29 colon
IGROV1 ovarian = tested on: IGROV1 ovarian
K-562 leukemia = tested on: K-562 leukemia
KM12 colon = tested on: KM12 colon
M14 melanoma = tested on: M14 melanoma
MALME-3M melanoma = tested on: MALME-3M melanoma
MCF7 breast = tested on: MCF7 breast
MDA-MB-231 breast = tested on: MDA-MB-231 breast
MDA-MB-435 = tested on: MDA-MB-435
MOLT-4 leukemia = tested on: MOLT-4 leukemia
NCI-H226 lung = tested on: NCI-H226 lung
NCI-H23 lung = tested on: NCI-H23 lung
NCI-H460 lung = tested on: NCI-H460 lung
NCI-H522 lung = tested on: NCI-H522 lung
NCI/ADR-RES ovarian = tested on: NCI/ADR-RES ovarian
OVCAR-3 ovarian = tested on: OVCAR-3 ovarian
OVCAR-4 ovarian = tested on: OVCAR-4 ovarian
OVCAR-5 ovarian = tested on: OVCAR-5 ovarian
OVCAR-8 ovarian = tested on: OVCAR-8 ovarian
PC-3 prostate = tested on: PC-3 prostate
RPMI-8226 leukemia = tested on: RPMI-8226 leukemia
RXF 393 renal = tested on: RXF 393 renal
SF-268 CNS = tested on: SF-268 CNS
SF-295 CNS = tested on: SF-295 CNS
SF-539 CNS = tested on: SF-539 CNS
SK-MEL-2 melanoma = tested on: SK-MEL-2 melanoma
SK-MEL-28 melanoma = tested on: SK-MEL-28 melanoma
SK-MEL-5 melanoma = tested on: SK-MEL-5 melanoma
SK-OV-3 ovarian = tested on: SK-OV-3 ovarian
SN12C renal = tested on: SN12C renal
SNB-19 CNS = tested on: SNB-19 CNS
SNB-75 CNS = tested on: SNB-75 CNS
SR leukemia = tested on: SR leukemia
SW-620 colon = tested on: SW-620 colon
T-47D breast = tested on: T-47D breast
U251 CNS = tested on: U251 CNS
UACC-257 melanoma = tested on: UACC-257 melanoma
UACC-62 melanoma = tested on: UACC-62 melanoma
UO-31 renal = tested on: UO-31 renal

Q: Which GI50 (786-0 renal) does the source give for `COc1cc(Cl)cc(-c2nn(-c3cccc(NC(=O)Nc4ccc(Cl)c(C(F)(F)F)c4)c3)cc2-c2ccncc2)c1` here?
A: The GI50 was 1590 nM.

Q: And the TGI (786-0 renal)?
A: Its TGI is 4270 nM.

Q: And the GI50 (A498 renal)?
A: The GI50 was 2680 nM.

Q: What about the TGI (A498 renal) of the same compound?
A: The TGI was 14400 nM.

Q: And the GI50 (A549 NSCLC)?
A: The GI50 was 678 nM.

Q: What about the TGI (A549 NSCLC) of the same compound?
A: Its TGI is 10800 nM.

Q: What about the GI50 (ACHN renal) of the same compound?
A: The GI50 was 762 nM.

Q: And the TGI (ACHN renal)?
A: The TGI was 10200 nM.

Q: And the GI50 (BT-549 breast)?
A: Its GI50 is 2380 nM.

Q: What about the TGI (BT-549 breast) of the same compound?
A: The TGI was 6660 nM.

Q: And the GI50 (CAKI-1 renal)?
A: Its GI50 is 816 nM.

Q: And the TGI (CAKI-1 renal)?
A: Its TGI is 9430 nM.

Q: And the GI50 (CCRF-CEM leukemia)?
A: The GI50 was 613 nM.

Q: And the TGI (CCRF-CEM leukemia)?
A: The TGI was 3650 nM.

Q: What about the GI50 (COLO 205 colon) of the same compound?
A: The GI50 was 1530 nM.

Q: What about the TGI (COLO 205 colon) of the same compound?
A: Its TGI is 3110 nM.

Q: What about the GI50 (DU-145 prostate) of the same compound?
A: The GI50 was 1860 nM.

Q: And the TGI (DU-145 prostate)?
A: Its TGI is 14000 nM.

Q: And the GI50 (HCC-2998 colon)?
A: Its GI50 is 2910 nM.

Q: And the TGI (HCC-2998 colon)?
A: Its TGI is 9020 nM.

Q: What about the GI50 (HCT-116 colon) of the same compound?
A: The GI50 was 631 nM.

Q: And the TGI (HCT-116 colon)?
A: Its TGI is 2360 nM.

Q: And the GI50 (HCT-15 colon)?
A: Its GI50 is 493 nM.

Q: What about the TGI (HCT-15 colon) of the same compound?
A: The TGI was 2400 nM.

Q: What about the GI50 (HL-60(TB) leukemia) of the same compound?
A: The GI50 was 1680 nM.

Q: And the TGI (HL-60(TB) leukemia)?
A: The TGI was 5530 nM.

Q: What about the GI50 (HOP-62 NSCLC) of the same compound?
A: Its GI50 is 2120 nM.

Q: And the TGI (HOP-62 NSCLC)?
A: Its TGI is 6320 nM.

Q: What about the GI50 (HS 578T breast) of the same compound?
A: Its GI50 is 4290 nM.

Q: What about the TGI (HS 578T breast) of the same compound?
A: The TGI was 67700 nM.

Q: What about the GI50 (HT29 colon) of the same compound?
A: The GI50 was 1140 nM.

Q: And the TGI (HT29 colon)?
A: Its TGI is 4380 nM.

Q: What about the GI50 (IGROV1 ovarian) of the same compound?
A: Its GI50 is 3200 nM.

Q: What about the TGI (IGROV1 ovarian) of the same compound?
A: Its TGI is 29100 nM.

Q: What about the GI50 (K-562 leukemia) of the same compound?
A: The GI50 was 537 nM.

Q: And the TGI (K-562 leukemia)?
A: Its TGI is 10100 nM.

Q: What about the GI50 (KM12 colon) of the same compound?
A: The GI50 was 555 nM.

Q: What about the TGI (KM12 colon) of the same compound?
A: Its TGI is 4440 nM.

Q: And the GI50 (M14 melanoma)?
A: The GI50 was 1330 nM.

Q: What about the TGI (M14 melanoma) of the same compound?
A: Its TGI is 3470 nM.

Q: What about the GI50 (MALME-3M melanoma) of the same compound?
A: The GI50 was 1710 nM.

Q: What about the TGI (MALME-3M melanoma) of the same compound?
A: Its TGI is 8590 nM.

Q: And the GI50 (MCF7 breast)?
A: The GI50 was 1010 nM.

Q: What about the TGI (MCF7 breast) of the same compound?
A: Its TGI is 11000 nM.

Q: What about the GI50 (MDA-MB-231 breast) of the same compound?
A: Its GI50 is 1440 nM.

Q: What about the TGI (MDA-MB-231 breast) of the same compound?
A: The TGI was 3740 nM.

Q: What about the GI50 (MDA-MB-435) of the same compound?
A: Its GI50 is 1760 nM.

Q: And the TGI (MDA-MB-435)?
A: Its TGI is 4360 nM.

Q: What about the GI50 (MOLT-4 leukemia) of the same compound?
A: Its GI50 is 1230 nM.

Q: What about the TGI (MOLT-4 leukemia) of the same compound?
A: The TGI was 4650 nM.

Q: And the GI50 (NCI-H226 lung)?
A: The GI50 was 2500 nM.

Q: And the TGI (NCI-H226 lung)?
A: The TGI was 14700 nM.

Q: And the GI50 (NCI-H23 lung)?
A: The GI50 was 1360 nM.

Q: What about the TGI (NCI-H23 lung) of the same compound?
A: The TGI was 6230 nM.

Q: And the GI50 (NCI-H460 lung)?
A: The GI50 was 770 nM.

Q: And the TGI (NCI-H460 lung)?
A: Its TGI is 4080 nM.

Q: And the GI50 (NCI-H522 lung)?
A: Its GI50 is 418 nM.

Q: And the TGI (NCI-H522 lung)?
A: The TGI was 2500 nM.

Q: And the GI50 (NCI/ADR-RES ovarian)?
A: The GI50 was 1770 nM.

Q: And the TGI (NCI/ADR-RES ovarian)?
A: The TGI was 11600 nM.

Q: What about the GI50 (OVCAR-3 ovarian) of the same compound?
A: Its GI50 is 451 nM.

Q: And the TGI (OVCAR-3 ovarian)?
A: Its TGI is 2660 nM.

Q: What about the GI50 (OVCAR-4 ovarian) of the same compound?
A: Its GI50 is 1800 nM.

Q: What about the TGI (OVCAR-4 ovarian) of the same compound?
A: Its TGI is 28800 nM.

Q: And the GI50 (OVCAR-5 ovarian)?
A: The GI50 was 2130 nM.

Q: What about the TGI (OVCAR-5 ovarian) of the same compound?
A: The TGI was 7150 nM.

Q: And the GI50 (OVCAR-8 ovarian)?
A: The GI50 was 739 nM.

Q: And the TGI (OVCAR-8 ovarian)?
A: Its TGI is 5930 nM.

Q: What about the GI50 (PC-3 prostate) of the same compound?
A: The GI50 was 342 nM.

Q: What about the TGI (PC-3 prostate) of the same compound?
A: The TGI was 2120 nM.

Q: And the GI50 (RPMI-8226 leukemia)?
A: The GI50 was 402 nM.

Q: What about the TGI (RPMI-8226 leukemia) of the same compound?
A: Its TGI is 2070 nM.

Q: What about the GI50 (RXF 393 renal) of the same compound?
A: Its GI50 is 1710 nM.

Q: And the TGI (RXF 393 renal)?
A: The TGI was 4420 nM.

Q: What about the GI50 (SF-268 CNS) of the same compound?
A: The GI50 was 2660 nM.

Q: What about the TGI (SF-268 CNS) of the same compound?
A: Its TGI is 12100 nM.

Q: What about the GI50 (SF-295 CNS) of the same compound?
A: Its GI50 is 465 nM.

Q: And the TGI (SF-295 CNS)?
A: Its TGI is 2000 nM.

Q: What about the GI50 (SF-539 CNS) of the same compound?
A: Its GI50 is 1500 nM.

Q: What about the TGI (SF-539 CNS) of the same compound?
A: The TGI was 3350 nM.

Q: And the GI50 (SK-MEL-2 melanoma)?
A: The GI50 was 1790 nM.

Q: What about the TGI (SK-MEL-2 melanoma) of the same compound?
A: The TGI was 4210 nM.

Q: What about the GI50 (SK-MEL-28 melanoma) of the same compound?
A: The GI50 was 2410 nM.

Q: And the TGI (SK-MEL-28 melanoma)?
A: Its TGI is 8410 nM.

Q: What about the GI50 (SK-MEL-5 melanoma) of the same compound?
A: The GI50 was 1540 nM.

Q: What about the TGI (SK-MEL-5 melanoma) of the same compound?
A: The TGI was 2930 nM.

Q: And the GI50 (SK-OV-3 ovarian)?
A: Its GI50 is 3150 nM.

Q: What about the TGI (SK-OV-3 ovarian) of the same compound?
A: Its TGI is 9850 nM.

Q: And the GI50 (SN12C renal)?
A: Its GI50 is 1560 nM.

Q: What about the TGI (SN12C renal) of the same compound?
A: The TGI was 8210 nM.

Q: What about the GI50 (SNB-19 CNS) of the same compound?
A: Its GI50 is 2930 nM.

Q: And the TGI (SNB-19 CNS)?
A: The TGI was 17600 nM.

Q: What about the GI50 (SNB-75 CNS) of the same compound?
A: Its GI50 is 1770 nM.

Q: And the TGI (SNB-75 CNS)?
A: The TGI was 11100 nM.

Q: And the GI50 (SR leukemia)?
A: Its GI50 is 1080 nM.

Q: And the TGI (SR leukemia)?
A: The TGI was 4380 nM.

Q: What about the GI50 (SW-620 colon) of the same compound?
A: Its GI50 is 1610 nM.

Q: And the TGI (SW-620 colon)?
A: The TGI was 10500 nM.

Q: And the GI50 (T-47D breast)?
A: The GI50 was 1250 nM.

Q: What about the TGI (T-47D breast) of the same compound?
A: Its TGI is 8020 nM.

Q: And the GI50 (U251 CNS)?
A: The GI50 was 729 nM.

Q: And the TGI (U251 CNS)?
A: Its TGI is 2110 nM.

Q: What about the GI50 (UACC-257 melanoma) of the same compound?
A: The GI50 was 1890 nM.

Q: What about the TGI (UACC-257 melanoma) of the same compound?
A: The TGI was 4930 nM.

Q: What about the GI50 (UACC-62 melanoma) of the same compound?
A: The GI50 was 1270 nM.

Q: And the TGI (UACC-62 melanoma)?
A: Its TGI is 3540 nM.

Q: What about the GI50 (UO-31 renal) of the same compound?
A: The GI50 was 1660 nM.

Q: What about the TGI (UO-31 renal) of the same compound?
A: The TGI was 10900 nM.
